In data set [1] the test system is Pseudomonas aeruginosa. Kind of data set: Antibacterial activity against MeXABCDXY-deficient Pseudomonas aeruginosa. The format is functional. The following applies: for MIC: Pseudomonas aeruginosa.
Data set [2] concerns Escherichia coli. The experiment in a line: Antibacterial activity against tolC-deficient Escherichia coli. The following applies: for MIC: Escherichia coli. The format is functional.
The nature of data set [3]: Lipophilicity, log D of the compound. The following applies: octanol/water.
Data set [4] concerns Escherichia coli. The experiment in a line: Antibacterial activity against wild-type Escherichia coli. The format is functional. The settings on record: for MIC: Escherichia coli.
Data set [5] deals with Pseudomonas aeruginosa. Kind of data set: Antibacterial activity against wild-type Pseudomonas aeruginosa. The following applies: for MIC: Pseudomonas aeruginosa. The format is functional.
For data set [6], the system named is Pseudomonas aeruginosa. Kind of data set: Ratio of MIC for wild-type Pseudomonas aeruginosa to MIC for MeXABCDXY-deficient Pseudomonas aeruginosa. The format is functional.
The nature of data set [7]: Inhibition of Haemophilus influenzae TrmD.
Data set [8] concerns Haemophilus influenzae. Kind of data set: Antibacterial activity against acrB-deficient Haemophilus influenzae. The format is functional.
The nature of data set [9]: Inhibition of Escherichia coli TrmD.
The nature of data set [10]: Inhibition of Haemophilus influenzae GlmU.
A short description of data set [11]: Inhibition of Escherichia coli GlmU.
Data set [12] has as its system Escherichia coli. The experiment in a line: Antibacterial activity against tolC-deficient Escherichia coli in presence of 2% HSA. The format is functional. The settings on record: for MIC: Escherichia coli.
The subject of data set [13] is Escherichia coli. Kind of data set: Ratio of MIC for wild-type Escherichia coli to MIC for tolC-deficient Escherichia coli. The format is functional.
A short description of data set [14]: Inhibition of Pseudomonas aeruginosa MurC.
Data set [15] relates to Staphylococcus aureus. The experiment in a line: Ratio of MIC for wild-type Staphylococcus aureus in presence of 2% HSA to MIC for wild-type Staphylococcus aureus. The format is functional.
Data set [16] deals with Staphylococcus aureus. The experiment in a line: Antibacterial activity against wild-type Staphylococcus aureus. The format is functional.
Data set [17] deals with Escherichia coli. Kind of data set: Ratio of MIC for […] tolC-deficient Escherichia coli in presence of 2% HSA to MIC for tolC-deficient Escherichia coli in presence of 2% HSA. The format is functional.
Data set [18] has as its system Staphylococcus aureus. The experiment in a line: Antibacterial activity against wild-type Staphylococcus aureus in presence of 2% HSA. The format is functional.

Here are results for 19 molecules from ChEMBL document CHEMBL3352383, “Trends and exceptions of physical properties on antibacterial activity for Gram-positive and Gram-negative pathogens” (J Med Chem, 2014).

Structures are written as SMILES. Values after ≈ are worked out from the molar mass of the structure shown.

The logD is the decadic logarithm of the distribution of all forms, ionised or not, between an organic phase and buffer at a given pH. Read a high logD as a more lipophilic compound. For the molecule `N=C(N)SCc1ccc(Cl)c(Cl)c1`, the Activity was 1 µg/mL in [1], greater than 32 µg/mL in data set [2], greater than 32 µg/mL in [4] and 4 µg/mL in data set [5]. In [3], this molecule registered a logD of 1.4.
In the case of `N=C(N)SCc1ccc(Cl)cc1`, the MIC in data set [1] is 6.25 µM; in data set [4], greater than 50 µM; in data set [5], 12.5 µM. Moreover, the Ratio in data set [6] is recorded as 2.
The term IC50 denotes the midpoint of a concentration-inhibition curve. Low readings indicate higher potency, high ones lower potency. `Oc1ncnc2scc(-c3ccccc3)c12`: the IC50 in data set [7] was less than 5 µM; in data set [9], 17 µM. The MIC in data set [2] and in data set [8] was greater than 64 mg/L throughout.
`COc1cc(OC)c(S(=O)(=O)N2c3ccccc3CC2C)cc1NC(C)=O` (stereo not drawn): the MIC in data set [2] and in data set [8] was greater than 64 mg/L in each case. Also, the IC50 was found to be 7.8 µM in [10] and 2.1 µM in data set [11].
With `COc1cc(OC)c(S(=O)(=O)N2c3ccccc3Oc3ccccc32)cc1NC(=O)CCC(=O)O`, the MIC in [2] is greater than 64 mg/L; in data set [8] it was 32 mg/L (≈ 64.2 µM). The IC50 in data set [10] was 0.023 µM; in data set [11], 0.007 µM.
Take `O=C(NCc1ccc(CN2CC[C@H](O)C2)cc1)c1csc2nc[nH]c(=O)c12`: the IC50 in [7] was 0.42 µM; in data set [9], 0.29 µM. Also, the MIC in [2] and in [8] was greater than 64 mg/L each time. This molecule also had a logD in data set [3] of 0.37.
Consider `Fc1ccc(COc2cccc(-c3n[nH]cc3-c3ccncc3)c2)cc1`, for which the results for the Activity in data set [2], in data set [12] and in data set [4] were less than 0.063 µg/mL, 16 µg/mL and 8 µg/mL, respectively. In data set [3], this molecule yielded a logD of 4.3.
For `CC(C)(C)c1nc(-c2ccc3c(c2)OCCO3)c(-c2ccncc2)[nH]1`, in that order: 0.25 µg/mL, 4 µg/mL, 32 µg/mL and 3.22.
In the case of `CC(C)(O)[C@H](NC(=O)c1ccc(C#CC#CC2CC2)cc1)C(=O)NO`, the Activity was less than 0.06 µg/mL in data set [1]; less than 0.063 µg/mL in data set [2]; less than 0.063 µg/mL in data set [12]; less than 0.063 µg/mL in data set [4]; 0.25 µg/mL in data set [5]. Besides, in data set [3], the logD came to 2.3.
Take `NC[C@H]1OB(O)c2ccccc21`: the MIC in data set [1] worked out at 6.25 µM; in data set [2] it was 12.5 µM; in [4], 12.5 µM; in data set [5], 6.25 µM. Moreover, the Ratio in data set [13] and in data set [6] was 1 throughout.
For `CO[C@H]1CN(c2nc(-c3cnc(N4CCN[C@H](C)C4)cn3)c(C(=O)O)s2)CC[C@H]1NC(=O)c1[nH]c(C)c(Cl)c1Cl`, the MIC was 3.13 µM in data set [1], 0.39 µM in data set [2], greater than 25 µM in data set [4] and 25 µM in data set [5]. The Ratio was found to be 64 in [13] and 8 in [6].
Regarding `OCC1CCCCN1c1nc(Nc2cc(C3CC3)[nH]n2)c2cn[nH]c2n1` (stereo not drawn), the MIC in [1], in data set [2], in [4] and in [5] was greater than 64 mg/L throughout. Also, the IC50 in data set [14] was found to be 1 µM; in [9], 1.2 µM. Also, the logD in [3] came out at 2.85.
In the case of `Cn1nc(Nc2nc(N[C@H](CO)c3ccccc3)nc3[nH]ncc23)cc1C(C)(C)C`, the MIC in [1] was 1.5 mg/L; in data set [2] it was 2 mg/L; in [4], greater than 64 mg/L; in data set [5], greater than 64 mg/L. Moreover, the IC50 is 0.001 µM in [14] and less than 0.0005 µM in data set [9]. The logD in data set [3] turned out to be 3.33.
Consider `CC[C@]1(C)C[C@@H](OC(=O)CSc2nnc(N)[nH]2)[C@]2(C)[C@H](C)CC[C@]3(CCC(=O)[C@H]32)[C@@H](C)[C@@H]1O` [AZAMULIN], for which the MIC in [2] is 4 mg/L; in data set [16], 2 mg/L (≈ 4.18 µM); in [12], 8 mg/L; in data set [4] it was greater than 64 mg/L; in data set [18], 2 mg/L. The Ratio in data set [15] was determined as 1; in data set [17] it was 2.
On to `Cc1cc(O)c(C(=O)N[C@@H](C(=O)N[C@@H]2C(=O)N3C(C(=O)O)=C(CSc4nnnn4C)CS[C@H]23)c2ccc(O)cc2)cn1` [CEFPIRAMIDE], for which the MIC was 0.5 mg/L in data set [2]; 32 mg/L (≈ 52.2 µM) in data set [16]; 6.4 mg/L in data set [12]; 16 mg/L in data set [4]; greater than 64 mg/L in [18]. Also, in data set [17], the Ratio turned out to be 128.
`CC(C)(O/N=C(\C(=O)N[C@@H]1C(=O)N2C(C(=O)[O-])=C(C[n+]3ccccc3)CS[C@H]12)c1csc(N)n1)C(=O)O` [CEFTAZIDIME]: the Ratio in data set [13] was 1.6. Also, the MIC is 0.5 µM in data set [2] and 0.8 µM in data set [4].
`C[C@@H](O)[C@H]1C(=O)N2C(C(=O)O)=C([C@H]3CCCO3)S[C@H]12` [FAROPENEM]: the MIC is 6.25 µM in data set [2], 3.13 µM in [4] and less than 100 µM in [5].
Consider `CC1COc2c(N3CCN(C)CC3)c(F)cc3c(=O)c(C(=O)O)cn1c23` (stereo not drawn) [OFLOXACIN], for which the MIC in [1] is less than 0.08 µM; in data set [2] it was 0.08 µM; in data set [4] it was 0.24 µM; in data set [5] it was 5.2 µM. For the same molecule, the Ratio in data set [13] came to 3; in data set [6] it was 62.
For the molecule `CCCCCC1=C/C(=C/c2[nH]c(-c3ccc[nH]3)cc2OC)N=C1C` [PRODIGIOSIN], the MIC was 1 mg/L in data set [2]; 2 mg/L (≈ 6.18 µM) in data set [16]; greater than 32 mg/L in data set [12]; 2 mg/L in [4]; 16 mg/L in [18]. For the same molecule, the Ratio in data set [15] was determined as 8; in data set [17] it was 2.
